The record followed here is patent US20040265915A1, “Method to identify regulators of cellular activation using Bcl10” (priority 2003, published 2004).

Assay [1] deals with Bcl10-YFP POLKADOTS formation. Put plainly: Bcl10-YFP POLKADOTS formation in PMA-stimulated D10 T cells with cytoskeletal inhibitors. The format is cell-based, murine. To be noted: data not shown. Here is the method:
(§1) To circumvent the problem that many cytoskeletal inhibitors also impair T cell/APC conjugate formation, D10 T cells were activated with phorbol ester (PMA), a stimulator of PKC. Specifically, in these experiments, D10 T cells infected with retroviruses encoding PKCθ-CFP and Bcl10-YFP received no pre-treatment, 2 hr pretreatment with 10 μg/ml nocodazole, or 1 hr pretreatment with 2 μg/ml latrunculin A. Cells then received either no treatment or were incubated for 20 min with 10 ng/ml PMA.

A further assay has as its target T1, PKCθ-CFP (Mus musculus, UniProt Q02111).
T1 construct: expressed in transfected cells; host or cells: D10 murine CD4+ T cell clone, infected with pEneo retrovirus
Put plainly: PKCθ-CFP translocation in D10 T cells, fluorescence microscopy. The format is cell-based, murine. Here is the method:
(§2) Murine PKCθ was fused to a C-terminal linker (GRVELGR; SEQ ID NO:7) followed by GFP or CFP (19), modified by mutations that improve folding at 37° C. (20). Two I.M.A.G.E. expressed sequence tag (EST) clones encoding murine Bcl10 were purchased (2123397 and 3026026; ResGen). Clone 3026026 was used for PCR amplification of Bc 10, adding the C-terminal linker GR, which was then fused to the previously described modified YFP gene (17). The PKCθ-CFP and Bcl10-YFP gene fusions were cloned into the retroviral vectors pEneo and pEhyg (21), respectively. Retroviral infection and cell line production were as described (17).
as §1
(§3) CH12 B cells that had been pre-incubated with no antigen or with 250 μg/ml conalbumin protein were then added. Cells were fixed after 30 min and examined by fluorescence microscopy. […]

For another assay, the system named is microtubules. Put plainly: Microtubule integrity (tubulin distribution) in PMA-stimulated D10 T cells. The format is cell-based, murine. The following applies: 2 hr pretreatment with 10 μg/ml nocodazole, then 10 ng/ml PMA 20 min. Here is the method:
as §1

The subject of assay [2] is Bcl10-YFP POLKADOTS formation. In words: Bcl10-YFP POLKADOTS formation in antigen-stimulated D10 T cells, fluorescence microscopy. The format is cell-based, murine. To be noted: bisindo 2 μM, stauro 100 nM; for Bcl10-YFP POLKADOTS formation: D10 T cells expressing Bcl10-YFP, conalbumin-loaded CH12 B cells (100 μg/ml), 30 min pre-treatment, fixed after 20 min, FIG. 4; for Bcl10 POLKADOTS formation: D10 T cells expressing PKCθ-CFP and Bcl10-YFP, CH12 B cells with 250 μg/ml conalbumin, 30 min pretreatment, fixed after 30 min, FIG. 5. How it is done: (§4) D10-IL2 (henceforth referred to as D10) is an IL-2 dependent subclone of the CD4^+ T cell clone D10 (16), maintained as described (17). Primary T cell blasts were prepared by stimulation of spleen and lymph node cells with 100 μg/ml plate-bound anti-TCRP for 48 hr, with IL-2 added for the final 24 hr of stimulation. CH12H-2^k B cells and CHb H-2^b B cells (18) were maintained as described previously (17).
as §2
Fluorescent and Nomarski images were acquired on an Olympus IX70 inverted microscope (Olympus America, Inc.) or a Zeiss Axiovert 200M inverted microscope (Carl Zeiss, Inc.) using a 100× plan-apochromat oil objective. The microscope was controlled by a TILLvisTRAC imaging system, driven by TILLvisION 4.0 software (TILL Photonics, GmbH). Excitation light was provided by a Polychrome IV monochromator (TILL Photonics, GmbH). Dichroic mirrors and excitation filters appropriate for each fluorophore were purchased from Chroma.
For fixed cell imaging, T cell conjugates were formed, mounted on coverslips, paraformaldehyde fixed, and stained with fluorophore-conjugated antibodies (Molecular Probes, Inc.) as described previously (16). For each fluorescent wavelength, z-stacks of 50 xy-planes separated by 0.3 μm were acquired, and stacks were digitally deconvolved using a constrained-iterative algorithm. TILLvisION software was used to convert z-stacks into xy projection images, by retaining only the maximal pixel value for each xy coordinate across the z-dimension.
The inventors next examined whether formation of Bcl10 POLKADOTS is PKC-dependent (FIG. 4 and FIG. 5). D10 T cells expressing Bcl10-YFP were incubated with CH12 B cells with no antigen, or with conalbumin-loaded CH12 B cells (100 μg/ml conalbumin). […] Cells were fixed after 20 minutes and examined by fluorescence microscopy. For each group, >200 T cells were counted, and percentages with and without POLKADOTS were determined.
as §3

The test system of the next assay is ERK MAP kinases. Put plainly: Activation of ERK MAP kinases in anti-TCR stimulated D10 T cells. The format is cell-based, murine. The following applies: anti-TCR stimulation, 30 min pre-treatment with 2 μM.
The subject of assay [3] is NF-κB activation (phosphorylation of IκBα). Put plainly: NF-κB activation assessed by phosphorylation of IκBα in anti-TCR stimulated D10 T cells. The format is cell-based, murine. To be noted: anti-TCR stimulation, 30 min pre-treatment with 2 μM, data not shown. Here is the method: T cells were stimulated with 100 μg/ml plate-bound anti-TCRP. Cell lysates were prepared on ice using 1× Laemmli buffer, followed by sonication. For immunoprecipitations, 5×10^6 cells were lysed for 1 hr on ice in 360 μL of a buffer consisting of 0.5% NP40, 0.5% deoxcholate, 20 mM Tris, pH 7.6, 250 mM NaCl, 3 mM EDTA, 3 mM EGTA, 1 mM PMSF, 20 μg/ml aprotinin, 100 μg/ml leupeptin, 1 mM Na3VO4, 10 mM NaF, and 1 mM DTT. Nuclei were removed by centrifugation, and lysates were incubated with polyclonal rabbit anti-Bcl10 antibody (Santa Cruz Biotechnology) for 2-3 hr at 4° C. and then for 1 hr at 4° C. with Protein A sepharose. Lysates and immunoprecipitates were separated by SDS-PAGE and blotted onto nitrocellulose. Proteins were detected by monoclonal antibodies against Bcl10 (Santa Cruz Biotechnology), and PKCθ (BD/Translabs), and polyclonal antibodies against phospho-IκBα anti-phospho-PKCθ/Thr538 (Cell Signaling Technologies), and actin (Santa Cruz Biotechnology). For phosphatase treatment, immunoprecipitates were incubated for 45 min at 30° C. with 400 U of λ-phosphatase (New England Biolabs), according to the instructions of the manufacturer. […]

Assay [4] concerns Bcl10-YFP phosphorylation. Put plainly: Western blot of TCR-dependent Bcl10-YFP phosphorylation in D10 T cells. The format is cell-based, murine. The following applies: anti-TCR stimulation, 30 min pre-treatment with 2 μM, data not shown. Here is the method:
T cells were stimulated with 100 μg/ml plate-bound anti-TCRP. Cell lysates were prepared on ice using 1× Laemmli buffer, followed by sonication. For immunoprecipitations, 5×10^6 cells were lysed for 1 hr on ice in 360 μL of a buffer consisting of 0.5% NP40, 0.5% deoxcholate, 20 mM Tris, pH 7.6, 250 mM NaCl, 3 mM EDTA, 3 mM EGTA, 1 mM PMSF, 20 μg/ml aprotinin, 100 μg/ml leupeptin, 1 mM Na3VO4, 10 mM NaF, and 1 mM DTT. Nuclei were removed by centrifugation, and lysates were incubated with polyclonal rabbit anti-Bcl10 antibody (Santa Cruz Biotechnology) for 2-3 hr at 4° C. and then for 1 hr at 4° C. with Protein A sepharose. Lysates and immunoprecipitates were separated by SDS-PAGE and blotted onto nitrocellulose. Proteins were detected by monoclonal antibodies against Bcl10 (Santa Cruz Biotechnology), and PKCθ (BD/Translabs), and polyclonal antibodies against phospho-IκBα anti-phospho-PKCθ/Thr538 (Cell Signaling Technologies), and actin (Santa Cruz Biotechnology). For phosphatase treatment, immunoprecipitates were incubated for 45 min at 30° C. with 400 U of λ-phosphatase (New England Biolabs), according to the instructions of the manufacturer.
The inventors next investigated whether Bcl10 redistribution reflects biochemical modification of Bcl10. […]
(In general: In western blotting, separated proteins are transferred to a membrane and probed.)

The next assay has as its system Bcl10. In words: Endogenous Bcl10 enrichment at the T cell/APC interface in OTII T cell blasts, immunofluorescence microscopy. The format is cell-based, mice. The following applies: 45 min with CHb APC loaded with 10 μg/ml OVA 323-339, FIG. 1B. How it is done: as §4
For fixed cell imaging, T cell conjugates were formed, mounted on coverslips, paraformaldehyde fixed, and stained with fluorophore-conjugated antibodies (Molecular Probes, Inc.) as described previously (16). […]
The inventors sought to establish whether Bcl10, like PKCθ, might be recruited to the c-SMAC in response to specific antigen-loaded APC. […] T cell/APC conjugates were detected by immunofluorescence microscopy, using monoclonal antibodies directed against Bcl10, PKCθ and CD4 (FIG. 1A). […]
In contrast, in T cells stimulated by specific antigen-loaded CHb APC, PKCθ became enriched at the region of contact between the T cell and the APC. […] The mean maximal anti-Bcl10 fluorescence intensity of the enriched regions of the antigen-stimulated T cells was 7-fold higher than the maximal T cell anti-Bcl10 fluorescence of the no antigen controls (FIG. 1B; error bars representing SEM).

T1 sequence (Q02111 whole entry): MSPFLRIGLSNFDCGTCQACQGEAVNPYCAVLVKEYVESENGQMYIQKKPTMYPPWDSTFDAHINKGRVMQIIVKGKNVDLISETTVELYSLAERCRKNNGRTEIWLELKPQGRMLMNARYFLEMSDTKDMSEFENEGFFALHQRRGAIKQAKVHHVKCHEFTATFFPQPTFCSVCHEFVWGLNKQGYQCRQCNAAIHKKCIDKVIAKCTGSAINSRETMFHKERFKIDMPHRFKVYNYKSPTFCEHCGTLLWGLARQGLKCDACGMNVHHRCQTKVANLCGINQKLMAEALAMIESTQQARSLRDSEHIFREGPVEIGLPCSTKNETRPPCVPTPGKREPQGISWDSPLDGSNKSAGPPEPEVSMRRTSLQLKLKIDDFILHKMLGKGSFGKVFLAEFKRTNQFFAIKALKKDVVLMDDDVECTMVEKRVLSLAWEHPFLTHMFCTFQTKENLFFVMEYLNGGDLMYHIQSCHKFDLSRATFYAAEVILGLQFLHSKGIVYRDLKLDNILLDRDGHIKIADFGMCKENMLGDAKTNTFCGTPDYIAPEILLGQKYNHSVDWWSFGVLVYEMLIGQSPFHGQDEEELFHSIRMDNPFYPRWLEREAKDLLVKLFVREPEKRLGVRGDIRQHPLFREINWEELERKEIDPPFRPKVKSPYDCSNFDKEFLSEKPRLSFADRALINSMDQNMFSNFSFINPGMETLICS

Regarding `CCCCCCCCCCCCCC(=O)O[C@@H]1[C@@H](C)[C@@]2(O)[C@@H](C=C(CO)C[C@]3(O)C(=O)C(C)=C[C@@H]23)[C@@H]2C(C)(C)[C@]12OC(C)=O` [PMA], the “Bcl10-YFP POLKADOTS on PMA stimulation” value in assay [1] (D10 T cells expressing PKCθ-CFP and Bcl10-YFP, 10 ng/ml PMA for 20 min) is recorded as “formation of Bcl10-YFP POLKADOTS”. For the same compound, at PKCθ-CFP (10 ng/ml PMA for 20 min, data not shown), the “PKCθ-CFP translocation on PMA stimulation” value was “translocation of PKCθ-CFP to the cell membrane”.
In the case of `C/C1=C/C(=O)O[C@@H]2C[C@@H](CC[C@H](C)/C=C\C=C\CC1)O[C@@](O)([C@@H]1CSC(=O)N1)C2` [latrunculin A], in assay [1] (1 hr pretreatment with 2 μg/ml latrunculin A, then 10 ng/ml PMA 20 min), the “levels of Bcl10-YFP POLKADOTS after cytoskeletal inhibitor pretreatment” value is recorded as “did not appear to have reduced levels”.
With `COC(=O)Nc1nc2ccc(C(=O)c3cccs3)cc2[nH]1` [nocodazole], the “microtubules (distribution of tubulin)” value in the assay on microtubules is “disrupted”.
For the compound `CN[C@@H]1C[C@H]2O[C@@](C)([C@@H]1OC)n1c3ccccc3c3c4c(c5c6ccccc6n2c5c31)C(=O)NC4` [stauro, staurosporine], in assay [2], the “Bcl10-YFP POLKADOTS formation” value is reported as “blocked” and the “Bcl10 POLKADOTS formation” value is given as “blocked”.
Turning to bisindolylmaleimide, in the assay on ERK MAP kinases, the “activation of the ERK MAP kinases” value is listed as “partially inhibited”. In assay [2], the “Bcl10-YFP POLKADOTS formation” value was “blocked” and the “Bcl10 POLKADOTS formation” value is “blocked”. The “PKCθ translocation in presence of PKC inhibitors” value at PKCθ-CFP (CH12 B cells with 250 μg/ml conalbumin, 30 min pretreatment, bisindo 2 μM, stauro 100 nM, FIG. 5) is “occurs”. For the same compound, in assay [3], the “activation of NF-κB (phosphorylation of IκBα)” value is listed as “blocked”. The “formation of phosphorylated Bcl10-YFP” value in assay [4] is listed as “completely blocked”.
As for “ovalbumin: ovalbumin peptide OVA 323-339 bound to IA^b, antigen for OTII T cells (KISQAVHAAHAEINEAG; UniProt P01012 323-339, looked up, fragment)”, the “mean maximal anti-Bcl10 fluorescence intensity of enriched regions relative to no antigen controls” value in the assay with Bcl10 was 7 fold.
